Experimental data taken from PMC12067444, “Synthesis and Pharmacological Characterization of Novel Peripheral Cannabinoid-1 Receptor Blockers Based on a Tricyclic Scaffold” (Journal of Medicinal Chemistry, 2025).
“Also recorded” adds a separate entry of the source.

What was measured:
C57BL/6J mice = test: CB1R agonist (HU210)-induced hypomotility; format: in vivo, mouse; conditions: 1 or 10 mg/kg PO; HU210 30 μg/kg IP; 4 h
Protocol: The activity profiles of the mice were evaluated using the Promethion High-Definition Behavioral Phenotyping System (Sable Instruments, Inc., Las Vegas, NV, USA). MetaScreen software version 2.2.18.0 was employed for data acquisition and instrument control, while ExpeData version 1.8.4 was used for processing raw data. An analysis script detailing all aspects of the data transformation was utilized. Mice with unrestricted access to food and water were subjected to a standard 12 h light/12 h dark cycle, comprising a 16-h acclimation period followed by 24 h of sampling. Ambulatory activity and position were concurrently quantified by the number of disruptions of the infrared beams in three dimensions (XYZ) with a beam spacing of 0.25 cm.
The objective of this experiment was to evaluate the capability of BNS808 and rimonabant (utilized as a positive control) in inhibiting hypomotility induced by a CB1R agonist (HU210). Male wild-type C57BL/6J mice were administered a single dose of either the vehicle, rimonabant (10 mg/kg, PO), or BNS808 (1 or 10 mg/kg, PO). Thirty minutes following this administration, the mice received a single dose of HU210 (30 μg/kg, IP). The locomotor activity was quantified by assessing the disruptions of infrared beams in two dimensions for 4 h.

[1] = Tissue distribution after chronic oral administration in diet-induced obese mice; format: in vivo; conditions: C57Bl/6J, mouse, brain; 1 mg/kg PO for 24 days, DIO mice, 24 h after last dose; read-out: brain concentration after chronic treatment
Protocol: Tissue distribution after chronic administration was conducted similarly, except tissue collection was performed 24 h after the last drug administration and analyzed in the same manner as previously described.
Supplementary F igure 2. BNS808 biodistribution and pharm acokinet ics aft er chronic P O adm inist rat ion. The accumulation of BNS808 in organs/plasma was evaluated by analyzing the BNS808 levels in the plasma, brain, and liver post-chronic administration of 1 mg/kg PO for 24 days in diet-induced obese mice. Data r epr esent the mean ± SE M of 4 mice per gr oup.
(1 picture or pasted object on this page, not shown here)

CYP1A2 = biological target: T1, CYP1A2 (Homo sapiens, UniProt P05177); test: CYP inhibition in human liver microsomes; format: in vitro ADME; conditions: probe phenacetin, phenacetin substrate
T1 construct: from tissue; host or cells: human liver microsomes
T1 sequence (P05177 1-516): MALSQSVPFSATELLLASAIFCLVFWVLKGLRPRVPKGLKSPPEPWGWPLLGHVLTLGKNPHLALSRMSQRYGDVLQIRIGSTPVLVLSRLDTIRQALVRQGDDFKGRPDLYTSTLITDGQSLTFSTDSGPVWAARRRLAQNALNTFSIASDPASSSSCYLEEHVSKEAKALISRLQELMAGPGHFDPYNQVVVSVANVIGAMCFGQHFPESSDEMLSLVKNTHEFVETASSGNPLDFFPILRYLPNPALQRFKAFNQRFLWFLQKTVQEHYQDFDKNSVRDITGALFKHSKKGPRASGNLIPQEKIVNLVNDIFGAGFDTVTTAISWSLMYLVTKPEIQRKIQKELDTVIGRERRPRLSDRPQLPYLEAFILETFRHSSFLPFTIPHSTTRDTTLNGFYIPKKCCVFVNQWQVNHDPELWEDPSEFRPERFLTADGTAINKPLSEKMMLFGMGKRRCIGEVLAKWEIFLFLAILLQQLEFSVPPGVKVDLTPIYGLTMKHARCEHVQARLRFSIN
Protocol: Human liver microsomes were incubated with the test compounds at 0.2 mg/mL of microsomal protein. The incubation was conducted at 37 °C in the presence of a NADPH (β-Nicotinamide adenine dinucleotide phosphate reduced form) regenerating system at a concentration of approximately 10 mM. To assess CYP inhibition, positive control substrates were utilized, including Phenacetin (1A2 substrate), Diclofenac (2C9 substrate), S-mephenytoin (2C19 substrate), Dextromethorphan (2D6 substrate), and Midazolam (3A4 substrate). The mixture was centrifuged after a 10 min incubation period to precipitate the protein. Subsequently, the samples underwent LC-MS/MS analysis, and the IC50 values were calculated to ascertain the inhibitory potency of the test compounds on specific CYP enzymes.

CB1R = biological target: T2, CB1R (Mus musculus, UniProt P47746); test: [35S]GTPγS binding - CB1R activity, mouse brain membranes; format: biochemical; conditions: CP-55,940 as reference agonist
T2 construct: crude membranes from mouse brain; from tissue; host or cells: mouse brain cortex (without cerebellum) membranes, C57Bl/6Jhsd mice
T2 sequence (P47746 whole entry): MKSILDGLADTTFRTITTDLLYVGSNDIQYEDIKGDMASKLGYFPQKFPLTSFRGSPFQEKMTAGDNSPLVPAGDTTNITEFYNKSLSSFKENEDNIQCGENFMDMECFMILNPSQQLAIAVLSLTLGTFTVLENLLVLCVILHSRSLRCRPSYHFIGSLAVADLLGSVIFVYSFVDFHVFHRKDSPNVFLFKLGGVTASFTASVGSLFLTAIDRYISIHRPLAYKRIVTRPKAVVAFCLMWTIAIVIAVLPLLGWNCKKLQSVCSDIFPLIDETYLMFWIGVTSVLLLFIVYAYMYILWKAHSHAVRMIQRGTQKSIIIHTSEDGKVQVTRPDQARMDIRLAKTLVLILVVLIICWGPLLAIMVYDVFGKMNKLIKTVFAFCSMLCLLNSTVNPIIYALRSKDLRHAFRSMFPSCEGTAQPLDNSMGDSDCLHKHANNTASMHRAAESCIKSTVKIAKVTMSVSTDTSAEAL
Protocol: Mouse brains were dissected, and P2 membranes were prepared and resuspended at ∼10 μg protein/μL in 350 μL assay buffer containing 0.14% BSA. Ligand-stimulated [^35S]GTPγS binding was assayed as described in the SI. […]
utilizing [3H] C P -55,940 as the radioligand and crude membranes from humans for CB1 R or CB2 R. T he compounds were tested at various concentrations (eight points with a five-fold serial dilution starting at two m M) , and their ability to displace [3H] CP - 55, 940 was evaluated. Upon completion of the binding assays, the reaction mixture was filtered through GF/C plates, followed by four washes with cold wash buffer. After drying for one hour, 50 μL of Perkin Elmer Microscint 20 cocktail was added to the filter plate wells, and the bound [3H] C P -55,940 radioligand was measured using a β counter. All data points were duplicated, and Ki values were determined from two independent experiments using GraphPad Prism 7.02 analysis software, extracted through nonlinear regression analysis.
Tissue preparation for [ 35 S]GTPγS binding. […]
mM EGTA, 9 mM MgCl 2, and 150 mM NaCl, followed by homogenization. The protein concentration of the suspension was determined using the BCA assay, and the suspen sion was diluted to a final concentration of 2 mg/mL in assay buffer. […]
Supplementary Figure 1. […] The tested compounds were evaluated for their ability to inhibit CB1R-mediate d […]

**Q.** Which results are given for O=S(=O)(NC1CCCOc2c1nn(-c1ccccc1Cl)c2-c1ccc(Cl)cc1)c1ccc(Cl)cc1 (stereo not shown) [BNS808, 4-chloro-N-[2-(2-chlorophenyl)-3-(4-chlorophenyl)-5,6,7,8-tetrahydrooxepino[3,2-c]pyrazol-8-yl]benzenesulfonamide]?
**A.** antagonism of HU-210-induced hypoactivity (C57BL/6J mice): unable to antagonize the hypoactivity mediated by HU-210; concentration at 24 h [1]: ~20 ng/g; IC50 at 10 min (CYP1A2): > 50 µM

**Q.** For Cc1ccc(S(=O)(=O)NC2CCCOc3c2nn(-c2ccccc2Cl)c3-c2ccc(Cl)cc2)cc1 (stereo not shown) [BNS807], which “CB1R functional profile in GTPγS assay” value (CB1R) is on record?
**A.** inverse agonistic profile; also recorded: inverse agonist
